Experimental data: PubChem BioAssay (NCI)
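Tested at 5 concentrations; 48 h exposure; 96-well plates; endpoints linearly interpolated, else capped at highest concentration. TGI: concentration producing complete growth inhibition.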

What was measured:
Test in all cases: NCI tumour cell line growth inhibition, 48 h
HOP-62 NSCLC = system: HOP-62 NSCLC
MCF7 breast = system: MCF7 breast
CCRF-CEM leukemia = system: CCRF-CEM leukemia
OVCAR-3 ovarian = system: OVCAR-3 ovarian
RXF 393 renal = system: RXF 393 renal
K-562 leukemia = system: K-562 leukemia
MDA-MB-231 breast = system: MDA-MB-231 breast
MOLT-4 leukemia = system: MOLT-4 leukemia
OVCAR-8 ovarian = system: OVCAR-8 ovarian
PC-3 prostate = system: PC-3 prostate
SNB-75 CNS = system: SNB-75 CNS
OVCAR-5 ovarian = system: OVCAR-5 ovarian
EKVX NSCLC = system: EKVX NSCLC
U251 CNS = system: U251 CNS
UACC-257 melanoma = system: UACC-257 melanoma
BT-549 breast = system: BT-549 breast
HS 578T breast = system: HS 578T breast
HOP-92 NSCLC = system: HOP-92 NSCLC
UO-31 renal = system: UO-31 renal
HCT-116 colon = system: HCT-116 colon
LOX IMVI melanoma = system: LOX IMVI melanoma
UACC-62 melanoma = system: UACC-62 melanoma
MDA-N = system: MDA-N
NCI-H23 lung = system: NCI-H23 lung
NCI-H522 lung = system: NCI-H522 lung
NCI-H226 lung = system: NCI-H226 lung
TK-10 renal = system: TK-10 renal
CAKI-1 renal = system: CAKI-1 renal
COLO 205 colon = system: COLO 205 colon
HCT-15 colon = system: HCT-15 colon
DU-145 prostate = system: DU-145 prostate
786-0 renal = system: 786-0 renal
HL-60(TB) leukemia = system: HL-60(TB) leukemia
RPMI-8226 leukemia = system: RPMI-8226 leukemia
SR leukemia = system: SR leukemia
ACHN renal = system: ACHN renal
OVCAR-4 ovarian = system: OVCAR-4 ovarian
SK-MEL-5 melanoma = system: SK-MEL-5 melanoma
A498 renal = system: A498 renal
NCI/ADR-RES ovarian = system: NCI/ADR-RES ovarian
SN12C renal = system: SN12C renal
SF-295 CNS = system: SF-295 CNS
MALME-3M melanoma = system: MALME-3M melanoma
SK-MEL-2 melanoma = system: SK-MEL-2 melanoma
SW-620 colon = system: SW-620 colon
IGROV1 ovarian = system: IGROV1 ovarian
A549 NSCLC = system: A549 NSCLC
M14 melanoma = system: M14 melanoma
HT29 colon = system: HT29 colon
SF-268 CNS = system: SF-268 CNS
SK-OV-3 ovarian = system: SK-OV-3 ovarian
MDA-MB-435 = system: MDA-MB-435
HCC-2998 colon = system: HCC-2998 colon
SK-MEL-28 melanoma = system: SK-MEL-28 melanoma
KM12 colon = system: KM12 colon
SF-539 CNS = system: SF-539 CNS
SNB-19 CNS = system: SNB-19 CNS

With `CC[C@H](O)[C@H](C)C=C1SCCCS1` as the compound, how does the TGI (HOP-62 NSCLC) read?
The TGI was > 100 µM.

And the TGI (MCF7 breast)?
The TGI was > 100 µM.

What about the TGI (CCRF-CEM leukemia) of the same compound?
The TGI was > 100 µM.

And the TGI (OVCAR-3 ovarian)?
Its TGI is > 100 µM.

What about the TGI (RXF 393 renal) of the same compound?
Its TGI is > 100 µM.

And the TGI (K-562 leukemia)?
The TGI was > 100 µM.

What about the TGI (MDA-MB-231 breast) of the same compound?
The TGI was > 100 µM.

And the TGI (MOLT-4 leukemia)?
Its TGI is > 100 µM.

What about the TGI (OVCAR-8 ovarian) of the same compound?
Its TGI is > 100 µM.

What about the TGI (PC-3 prostate) of the same compound?
The TGI was > 100 µM.

And the TGI (SNB-75 CNS)?
The TGI was > 100 µM.

And the TGI (OVCAR-5 ovarian)?
Its TGI is > 100 µM.

And the TGI (EKVX NSCLC)?
Its TGI is > 100 µM.

What about the TGI (U251 CNS) of the same compound?
Its TGI is > 100 µM.

And the TGI (UACC-257 melanoma)?
Its TGI is > 100 µM.

What about the TGI (BT-549 breast) of the same compound?
Its TGI is > 100 µM.

What about the TGI (HS 578T breast) of the same compound?
Its TGI is > 100 µM.

And the TGI (HOP-92 NSCLC)?
The TGI was > 100 µM.

What about the TGI (UO-31 renal) of the same compound?
The TGI was > 100 µM.

What about the TGI (HCT-116 colon) of the same compound?
Its TGI is > 100 µM.

What about the TGI (LOX IMVI melanoma) of the same compound?
The TGI was > 100 µM.

What about the TGI (UACC-62 melanoma) of the same compound?
The TGI was > 100 µM.

And the TGI (MDA-N)?
Its TGI is > 100 µM.

And the TGI (NCI-H23 lung)?
The TGI was > 100 µM.

And the TGI (NCI-H522 lung)?
The TGI was > 100 µM.

And the TGI (NCI-H226 lung)?
Its TGI is > 100 µM.

What about the TGI (TK-10 renal) of the same compound?
Its TGI is > 100 µM.

And the TGI (CAKI-1 renal)?
The TGI was > 100 µM.

What about the TGI (COLO 205 colon) of the same compound?
Its TGI is > 100 µM.

And the TGI (HCT-15 colon)?
The TGI was > 100 µM.

And the TGI (DU-145 prostate)?
The TGI was > 100 µM.

And the TGI (786-0 renal)?
Its TGI is > 100 µM.

And the TGI (HL-60(TB) leukemia)?
Its TGI is 89.7 µM.

What about the TGI (RPMI-8226 leukemia) of the same compound?
Its TGI is > 100 µM.

What about the TGI (SR leukemia) of the same compound?
Its TGI is > 100 µM.

What about the TGI (ACHN renal) of the same compound?
The TGI was > 100 µM.

And the TGI (OVCAR-4 ovarian)?
The TGI was > 100 µM.

What about the TGI (SK-MEL-5 melanoma) of the same compound?
The TGI was > 100 µM.

What about the TGI (A498 renal) of the same compound?
Its TGI is > 100 µM.

And the TGI (NCI/ADR-RES ovarian)?
The TGI was > 100 µM.

What about the TGI (SN12C renal) of the same compound?
The TGI was > 100 µM.

What about the TGI (SF-295 CNS) of the same compound?
Its TGI is > 100 µM.

What about the TGI (MALME-3M melanoma) of the same compound?
Its TGI is > 100 µM.

And the TGI (SK-MEL-2 melanoma)?
The TGI was > 100 µM.

And the TGI (SW-620 colon)?
Its TGI is > 100 µM.

And the TGI (IGROV1 ovarian)?
The TGI was > 100 µM.

What about the TGI (A549 NSCLC) of the same compound?
The TGI was > 100 µM.

What about the TGI (M14 melanoma) of the same compound?
Its TGI is > 100 µM.

What about the TGI (HT29 colon) of the same compound?
The TGI was > 100 µM.

What about the TGI (SF-268 CNS) of the same compound?
Its TGI is > 100 µM.

And the TGI (SK-OV-3 ovarian)?
Its TGI is > 100 µM.

What about the TGI (MDA-MB-435) of the same compound?
The TGI was > 100 µM.

What about the TGI (HCC-2998 colon) of the same compound?
The TGI was > 100 µM.

What about the TGI (SK-MEL-28 melanoma) of the same compound?
Its TGI is > 100 µM.

What about the TGI (KM12 colon) of the same compound?
Its TGI is > 100 µM.

What does the source list for `CC(=O)OCCOCn1c2c(c(=S)[nH]c1=O)CCC2`?
TGI (HOP-62 NSCLC): > 100 µM; TGI (MCF7 breast): > 100 µM; TGI (CCRF-CEM leukemia): > 100 µM; TGI (OVCAR-3 ovarian): > 100 µM; TGI (RXF 393 renal): > 100 µM; TGI (K-562 leukemia): > 100 µM; TGI (MDA-MB-231 breast): > 100 µM; TGI (MOLT-4 leukemia): > 100 µM; TGI (OVCAR-8 ovarian): > 100 µM; TGI (PC-3 prostate): > 100 µM; TGI (SNB-75 CNS): > 100 µM; TGI (OVCAR-5 ovarian): > 100 µM; TGI (EKVX NSCLC): > 100 µM; TGI (U251 CNS): > 100 µM; TGI (UACC-257 melanoma): > 100 µM; TGI (BT-549 breast): > 100 µM; TGI (HS 578T breast): > 100 µM; TGI (HOP-92 NSCLC): > 100 µM; TGI (UO-31 renal): > 100 µM; TGI (HCT-116 colon): > 100 µM; TGI (LOX IMVI melanoma): > 100 µM; TGI (MDA-N): > 100 µM; TGI (NCI-H23 lung): > 100 µM; TGI (NCI-H522 lung): > 100 µM; TGI (NCI-H226 lung): > 100 µM; TGI (TK-10 renal): > 100 µM; TGI (CAKI-1 renal): > 100 µM; TGI (COLO 205 colon): > 100 µM; TGI (HCT-15 colon): > 100 µM; TGI (DU-145 prostate): > 100 µM; TGI (786-0 renal): > 100 µM; TGI (HL-60(TB) leukemia): > 100 µM; TGI (RPMI-8226 leukemia): > 100 µM; TGI (SR leukemia): > 100 µM; TGI (ACHN renal): > 100 µM; TGI (OVCAR-4 ovarian): > 100 µM; TGI (SK-MEL-5 melanoma): > 100 µM; TGI (SF-539 CNS): > 100 µM; TGI (SN12C renal): > 100 µM; TGI (SF-295 CNS): > 100 µM; TGI (MALME-3M melanoma): > 100 µM; TGI (SNB-19 CNS): > 100 µM; TGI (SK-MEL-2 melanoma): > 100 µM; TGI (SW-620 colon): > 100 µM; TGI (IGROV1 ovarian): > 100 µM; TGI (A549 NSCLC): > 100 µM; TGI (M14 melanoma): > 100 µM; TGI (HT29 colon): > 100 µM; TGI (SF-268 CNS): > 100 µM; TGI (MDA-MB-435): > 100 µM; TGI (HCC-2998 colon): > 100 µM; TGI (SK-MEL-28 melanoma): > 100 µM; TGI (KM12 colon): > 100 µM
